Some test systems named below: A498; A549; ACHN; HOP-92; Hs-578T; IGROV-1; K562; MCF7; MDA-MB-231; MDA-N; MOLT-4; NCI-H23; NCI/ADR-RES; SF-539; SK-MEL-5; SR; UACC-257; CCRF-CEM; RXF 393.
Holding throughout (experiment): DTP human tumour cell line panel, 48 h

The values that follow come from ChEMBL document CHEMBL1201862, “PubChem BioAssay data set” (2004).

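Exposure lasted 48 hours, with cells grown in 96-well plates and compounds tested at five concentrations. GI50 marks 50% less growth.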 Calls of active or inactive are those of the source. Rule as the data show it: active = GI50 up to about 1.1 µM and inactive = higher.

With `Cc1[nH]c2ccccc2c1-c1cc(-c2cc(-c3c(C)[nH]c4ccccc34)nc(N)n2)nc(N)n1`, the GI50 in the assay with A498, in the assay on A549, in the assay with ACHN, in the assay on HOP-92, in the assay with Hs-578T and in the assay with IGROV-1 was > 100 µM (inactive) each time. The GI50 in the assay with K562, in the assay with MCF7, in the assay with MDA-MB-231, with MDA-N, with MOLT-4 and in the assay with NCI-H23 was > 100 µM (inactive) throughout. Further, the GI50 with NCI/ADR-RES was > 100 µM (inactive); with SF-539, > 100 µM (inactive); in the assay on SK-MEL-5, > 100 µM (inactive); in the assay with SR it was 86.3 µM (inactive); with UACC-257, > 100 µM (inactive).

Regarding `O=C1C(NS(=O)(=O)c2ccccc2)=C(N(Cc2ccccc2)Cc2ccccc2)C(=O)c2ccccc21`, the GI50 with A549 was 33 µM (inactive); with ACHN, 44.1 µM (inactive); in the assay on CCRF-CEM, 20.2 µM (inactive); with HOP-92, 36.3 µM (inactive); in the assay with Hs-578T it was 81.3 µM (inactive); in the assay on IGROV-1, 41.8 µM (inactive). Further, the GI50 in the assay with K562 is 31.1 µM (inactive); with MCF7 it was 49.7 µM (inactive); with MDA-MB-231 it was > 100 µM (inactive); in the assay with MDA-N it was 64.6 µM (inactive); with MOLT-4, 21.1 µM (inactive); in the assay with NCI-H23 it was 15.8 µM (inactive). The GI50 in the assay with NCI/ADR-RES is 38.5 µM (inactive); in the assay with RXF 393, 15.5 µM (inactive); in the assay with SF-539, 67.5 µM (inactive); in the assay on SK-MEL-5 it was 80.4 µM (inactive); in the assay with SR it was 22.7 µM (inactive); in the assay with UACC-257 it was 96.8 µM (inactive).

With `O=c1[nH]c(=O)n(COC(CO)CO)cc1-c1ccccc1`, the GI50 in the assay with A549, with ACHN, with CCRF-CEM, in the assay with HOP-92, in the assay with Hs-578T and in the assay on IGROV-1 was > 100 µM (inactive) throughout. The GI50 in the assay on K562, with MCF7, in the assay with MDA-MB-231, in the assay with MDA-N, in the assay with MOLT-4 and in the assay on NCI-H23 was > 100 µM (inactive) in each case. Moreover, the GI50 in the assay with NCI/ADR-RES, in the assay on SK-MEL-5, in the assay with SR and in the assay on UACC-257 was > 100 µM (inactive) in each case.

As to `COc1c2cc(C(C)(C)C)cc1CSCc1cc(C(C)(C)C)cc(c1OC)CCCCC2`, the GI50 is 38.6 µM (inactive) in the assay with A498; 37.7 µM (inactive) in the assay on A549; 31.8 µM (inactive) with ACHN; 33.1 µM (inactive) in the assay on CCRF-CEM; > 50 µM (inactive) in the assay on Hs-578T; 21.4 µM (inactive) with IGROV-1. Further, the GI50 with K562 was > 50 µM (inactive); with MCF7 it was > 50 µM (inactive); in the assay with MDA-MB-231, 46.8 µM (inactive); in the assay on MDA-N it was > 50 µM (inactive); with MOLT-4, 29.6 µM (inactive); in the assay on NCI-H23, 36.7 µM (inactive). Besides, the GI50 was > 50 µM (inactive) in the assay on NCI/ADR-RES; 19.6 µM (inactive) in the assay with SF-539; 24.1 µM (inactive) in the assay on SK-MEL-5; > 50 µM (inactive) in the assay on SR; 13.3 µM (inactive) in the assay with UACC-257.

Regarding `O=[N+]([O-])c1ccc2nc3n(c2c1)C(c1c(F)cccc1F)SC3` (stereo not drawn), the GI50 is > 100 µM (inactive) in the assay with A498; > 10 µM (inactive) in the assay on A549; > 100 µM (inactive) in the assay on ACHN; > 100 µM (inactive) with CCRF-CEM; > 100 µM (inactive) in the assay on Hs-578T; > 100 µM (inactive) in the assay with IGROV-1. Moreover, the GI50 in the assay on K562 was > 10 µM (inactive); in the assay with MCF7, > 100 µM (inactive); with MDA-MB-231, > 100 µM (inactive); in the assay with MDA-N, > 100 µM (inactive); in the assay with MOLT-4, > 100 µM (inactive); in the assay with NCI-H23, > 100 µM (inactive). Moreover, the GI50 was > 100 µM (inactive) in the assay on NCI/ADR-RES, > 10 µM (inactive) in the assay on SK-MEL-5, 92.3 µM (inactive) in the assay on SR and > 100 µM (inactive) in the assay with UACC-257.

As for `Nc1ccc2c(O)cc(O)nc2n1`, the GI50 with A549, in the assay with ACHN, in the assay with HOP-92, in the assay on Hs-578T, in the assay on IGROV-1 and with K562 was > 100 µM (inactive) throughout. The GI50 in the assay on MCF7, in the assay with MDA-MB-231, with MDA-N, with MOLT-4, in the assay with NCI-H23 and with NCI/ADR-RES was > 100 µM (inactive) in each case. Moreover, the GI50 in the assay with RXF 393, with SF-539, with SK-MEL-5, in the assay with SR and with UACC-257 was > 100 µM (inactive) each time.

As for `c1csc(-c2cc(-c3cccs3)c(-c3ccsc3)s2)c1`, the GI50 with A498, in the assay with A549, with ACHN, with CCRF-CEM, in the assay on Hs-578T and in the assay with IGROV-1 was > 100 µM (inactive) in each case. Also, the GI50 was > 100 µM (inactive) with K562; 24.7 µM (inactive) in the assay on MCF7; > 100 µM (inactive) with MDA-MB-231; > 100 µM (inactive) in the assay on MDA-N; > 100 µM (inactive) in the assay with MOLT-4; > 100 µM (inactive) with NCI-H23. Besides, the GI50 with NCI/ADR-RES is > 100 µM (inactive); in the assay with SF-539 it was > 100 µM (inactive); in the assay with SK-MEL-5 it was > 100 µM (inactive); in the assay with SR, > 100 µM (inactive); in the assay with UACC-257, 58.1 µM (inactive).

For the compound `CC(C)C1(Cl)CCC2C3(C)CCCC(C)(C(=O)O)C3CC(Cl)C2(Cl)C1Cl` (stereo not drawn), the GI50 was 41.7 µM (inactive) in the assay on A498; 23.5 µM (inactive) with A549; 43.2 µM (inactive) in the assay on ACHN; 22.8 µM (inactive) with CCRF-CEM; 37.4 µM (inactive) with HOP-92; 37.5 µM (inactive) in the assay on Hs-578T. The GI50 was 54.7 µM (inactive) with IGROV-1; 24.3 µM (inactive) in the assay with K562; 30.5 µM (inactive) in the assay on MCF7; 33.3 µM (inactive) in the assay on MDA-MB-231; 32.4 µM (inactive) in the assay on MDA-N; 19.4 µM (inactive) in the assay on MOLT-4. Moreover, the GI50 in the assay with NCI-H23 was 54.2 µM (inactive); with NCI/ADR-RES it was 32.5 µM (inactive); with SF-539, 21.7 µM (inactive); in the assay with SK-MEL-5, 25.8 µM (inactive); in the assay on SR, 25.6 µM (inactive); in the assay with UACC-257, 31.1 µM (inactive).

As to `CC1S/C(=N/c2nnc(-c3ccccc3)o2)NC1=O` (stereo not drawn), the GI50 with A498 is > 100 µM (inactive); in the assay with A549, 37.6 µM (inactive); in the assay with ACHN, 46.5 µM (inactive); in the assay on CCRF-CEM, 14.5 µM (inactive); in the assay on HOP-92, > 100 µM (inactive); in the assay with Hs-578T, > 100 µM (inactive). The GI50 with IGROV-1 was 43.9 µM (inactive); in the assay on K562 it was 48 µM (inactive); in the assay on MCF7, 44 µM (inactive); with MDA-MB-231 it was 43.3 µM (inactive); in the assay with MDA-N it was 32.7 µM (inactive); in the assay with MOLT-4, 30.5 µM (inactive). In addition, the GI50 was 94.8 µM (inactive) in the assay on NCI-H23; 36.6 µM (inactive) in the assay on NCI/ADR-RES; 61.7 µM (inactive) in the assay on RXF 393; 30.2 µM (inactive) in the assay with SF-539; 35.9 µM (inactive) in the assay on SK-MEL-5; 53.8 µM (inactive) with UACC-257.

`CCN1C/C(=C\c2ccc(Cl)cc2)c2nc(N)c(C#N)c(-c3ccc(Cl)cc3)c2C1`: the GI50 in the assay on A498, with A549, in the assay on ACHN, with CCRF-CEM, in the assay with Hs-578T and with IGROV-1 was > 100 µM (inactive) each time. Moreover, the GI50 is > 100 µM (inactive) in the assay on K562; > 100 µM (inactive) in the assay with MCF7; > 100 µM (inactive) in the assay with MDA-MB-231; > 100 µM (inactive) in the assay on MDA-N; 67.9 µM (inactive) with MOLT-4; > 100 µM (inactive) in the assay with NCI-H23. For the same compound, the GI50 in the assay on NCI/ADR-RES was > 100 µM (inactive); in the assay on RXF 393 it was > 100 µM (inactive); in the assay on SK-MEL-5 it was > 100 µM (inactive); in the assay on SR, 27.1 µM (inactive); in the assay with UACC-257, > 100 µM (inactive).

In the case of `Cc1c2cccc-2c2cc(O)c3ccccc3c2n1-c1ccc(N(C)C)cc1`, the GI50 in the assay with A498 is 17.1 µM (inactive); in the assay on A549, 14.6 µM (inactive); with ACHN, 12.4 µM (inactive); in the assay on CCRF-CEM, 9.77 µM (inactive); in the assay on HOP-92, 2.51 µM (inactive); in the assay on Hs-578T, 15 µM (inactive). The GI50 is 2.59 µM (inactive) in the assay with IGROV-1; 6.81 µM (inactive) in the assay with K562; 0.395 µM (active) with MCF7; 3.01 µM (inactive) with MDA-MB-231; 17 µM (inactive) in the assay with MDA-N; 4.28 µM (inactive) with NCI-H23. Further, the GI50 in the assay on NCI/ADR-RES was 14.6 µM (inactive); in the assay on SF-539, 14.3 µM (inactive); in the assay on SK-MEL-5, 11.8 µM (inactive); in the assay with SR, 4.63 µM (inactive); in the assay with UACC-257 it was 28.1 µM (inactive).
